Measured values as given in US12037324B2, “Biarylmethyl heterocycles” (Université de Montréal, priority 2016, dated 2024).

Columns and labels:
Type in all cases: cell-based
AGTR1 [1] = molecular target: T1, AGTR1 (Homo sapiens, UniProt P30556); assay: DiscoveRx IP1 accumulation assay (HTRF), agonist mode, Pathunter CHO-K1 AGTR1 β-arrestin cell line; details: for EC50: read-out: IP-1 EC50
T1 construct: host or cells: Pathunter CHO-K1 AGTR1 β-arrestin cell line (CHO-K1)
T1 sequence (P30556 1-359): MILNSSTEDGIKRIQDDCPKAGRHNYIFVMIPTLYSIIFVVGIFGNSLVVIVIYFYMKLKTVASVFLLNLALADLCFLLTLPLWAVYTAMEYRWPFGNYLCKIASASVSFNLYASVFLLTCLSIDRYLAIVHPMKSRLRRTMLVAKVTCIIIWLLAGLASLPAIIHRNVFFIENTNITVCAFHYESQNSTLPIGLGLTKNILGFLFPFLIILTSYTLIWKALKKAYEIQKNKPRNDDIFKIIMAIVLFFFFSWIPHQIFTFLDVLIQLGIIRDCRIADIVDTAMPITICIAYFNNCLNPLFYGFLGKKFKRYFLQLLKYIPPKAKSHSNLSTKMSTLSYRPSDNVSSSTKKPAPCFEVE
Experimental: In one aspect of the invention, signaling bias of compounds was assessed by comparing the relative activity of compounds to activate both the β-arrestin and Gq signaling pathways. In order to confirm signaling bias, compounds were studied in two different assay formats.
DiscoveRx β-arrestin2 Recruitment and IP1 Assays
Gq activation can be assessed by measuring the accumulation of inositol phosphates (e.g. IP3, IP1) that are liberated following activation of phospholipase C by Gq (Thomsen, Frazer et al. 2005). In the current invention we have utilized the DiscoveRx Pathunter CHO-K1 AGTR1 β-arrestin cell line to also measure IP1 accumulation in response to compounds. IP1 accumulation was measured in both agonist and antagonist modes. In agonist mode, cells are plated as above 14-16 hours before the experiment. The medium is then removed and compounds at varying concentrations added in a final volume of 20 μl. The cells are incubated at 37° C. for 90 min. IP1 accumulation detected using a commercial HTRF assay according to manufacturer's instructions (Cisbio, Bedford, MA). Specifically, 4 μl of D2-conjugate solution (diluted 1:20 in Cisbio HTRF assay buffer) is added to each well, followed by the addition of 4 μl of anti-IP1 cryptate diluted 1:20 in HTRF assay buffer and the plates incubated for 20 min at room temperature. 14 μl from each well is measured using an Envision multi-label reader and data processed using Toolset for Runmaster QCMulti. Concentration-response curves are fitted and EC50s (agonist mode) and IC50s (antagonist mode) estimated using a 4-parameter logistic equation. Compound activities are reported as a relative percentage to the maximal effect of All in the assays.

hAT1R = molecular target: T2, hAT1R (Homo sapiens, UniProt P30556); assay: BRET β-arrestin2 biosensor assay, higher receptor expression (hAT1R 5 ng/well), HEK293 cells; details: for EC50: High AT1R Expression
T2 sequence (P30556 1-359): T1 sequence (P30556 1-359)

AGTR1 [2] = molecular target: T1, AGTR1; assay: DiscoveRx β-arrestin2 recruitment assay (enzyme complementation, Pathunter CHO-K1 AGTR1 β-arrestin cell line); details: DiscoveRx β-arrestin2 recruitment; for DiscoveRx β-arrestin2 Ymax (%): maximal response
Experimental: In one aspect of the invention, signaling bias of compounds was assessed by comparing the relative activity of compounds to activate both the β-arrestin and Gq signaling pathways. In order to confirm signaling bias, compounds were studied in two different assay formats. DiscoveRx β-arrestin2 Recruitment and IP1 Assays β-arrestin2 recruitment to activated receptors can be assessed using an enzyme complementation method (Zhao, Jones et al. 2008). […] Cells (5000/well) were plated into 1536 well plates (Cellocoat plates, Greiner Bio One, Monroe, NC) 14-16 hours before each experiment in 20 μl DMEM/F12 medium (Thermo-Fisher Scientific, Carlsbad, CA) containing heat-inactivated 1% fetal bovine serum. Subsequently, the compounds of interest were added at varying concentrations to the wells in a volume of 200 nl and the cells incubated for 90 min at 37° C. The detection reagent (10 μl) was added to each well and the plates incubated at room temperature for 1 hour before measurement of chemiluminescence using an EnVision Multilabel Reader (Perkin-Elmer, Waltham, MA). The data are processed using Toolset for Runmaster QCMulti. Concentration-response curves are fitted and EC50s (agonist mode) and IC50s (antagonist mode) estimated using a 4-parameter logistic equation. Compound activities are reported as a relative percentage to the maximal effect of All in the assays.

Structure (SMILES) | EC50 (AGTR1 [1]) [nM] | BRET β-Arrestin2 High AT1R Expression Ymax (%) (hAT1R) | EC50 (hAT1R) [nM] | EC50 (AGTR1 [2]) [nM] | DiscoveRx β-arrestin2 Ymax (%) (AGTR1 [2]) | IP-1 Ymax (%) (AGTR1 [1])
CCc1nc2c(C)cc(C)nc2n1Cc1ccc(-c2cc(-c3cccs3)ccc2-c2nn[nH]n2)cc1 [Example 12] | > 1000 | 83.6 | 9 | 6.3 | 21.4 | –
CCc1nc2c(C)cc(C)nc2n1Cc1ccc(-c2cc(-c3ccc4ncccc4c3)ccc2-c2nn[nH]n2)cc1 [Example 13] | > 1000 | 53.8 | 11.5 | 12.9 | 24.8 | –
CCc1nc2c(C)cc(C)nc2n1Cc1ccc(-c2cc(-c3cccc4cnccc34)ccc2-c2nn[nH]n2)cc1 [Example 16] | 55.3 | 69.9 | 24.7 | 59.8 | 17.1 | 3.6
CCc1nc2c(C)cc(C)nc2n1Cc1ccc(-c2cc(-c3cnn(C)c3)ccc2-c2nn[nH]n2)cc1 [Example 21] | 77.3 | 64.0 | 51.4 | 22.1 | 21.1 | 6.9
CCc1nc2c(C)cc(C)nc2n1Cc1ccc(-c2cc(-c3cccn3C)ccc2-c2nn[nH]n2)cc1 [Example 22] | 34.4 | 57.1 | 33.7 | 10.3 | 14.8 | 2.4
CCc1nc2c(C)cc(C)nc2n1Cc1ccc(-c2cc(-c3cccc(C(=O)N(C)C)c3)ccc2-c2nn[nH]n2)cc1 [Example 23] | 211 | 66.3 | 170 | 54.1 | 26.8 | 7.3
CCc1nc2c(C)cc(C)nc2n1Cc1ccc(-c2cc(N3C(=O)c4ccccc4C3=O)ccc2-c2nn[nH]n2)cc1 [Example 27, 2-(4′-((2-ethyl-5,7-dimethyl-3H-imidazo[4,5-b]pyridin-3-yl)methyl)-6-(2H-tetrazol-5-yl)-[1,1′-biphenyl]-3-yl)isoindoline-1,3-dione] | > 100000 | 20.1 | 89.5 | 206 | 10.6 | –
CCCCC(=O)N(Cc1ccc(-c2cc(-c3ccccc3)ccc2-c2nn[nH]n2)cc1)[C@H](C(=O)O)C(C)C [Example 34, (S)-2-(N-((6′-(2H-Tetrazol-5-yl)-[1,1′:3′,1″-terphenyl]-4-yl)methyl)pentanamido)-3-methylbutanoic acid] | 178 | 68.4 | 50.6 | 40.3 | 35.6 | 3.8
CCCCc1nc(Cl)c(CO)n1Cc1ccc(-c2cc(-c3ccccc3)ccc2-c2nnn[nH]2)cc1 [Example 35, (1-((6′-(1H-Tetrazol-5-yl)-[1,1′:3′,1″-terphenyl]-4-yl)methyl)-2-butyl-4-chloro-1H-imidazol-5-yl)methanol] | > 50000 | 76.7 | 148 | 64 | 28.2 | –
CCCCOC(=O)NS(=O)(=O)c1sc(-c2ccccc2C)cc1-c1ccc(Cn2c(CC)nc3c(C)cc(C)nc32)cn1 [Example 39, Butyl (3-(5-((2-ethyl-5,7-dimethyl-3H-imidazo[4,5-b]pyridin-3-yl)methyl)pyridin-2-yl)-5-(o-tolyl)thiophen-2-yl)sulfonylcarbamate] | 126 | 37.9 | 18.8 | 33.1 | 23.3 | 4.8
CCCCOC(=O)NS(=O)(=O)c1sc(-c2ccccc2C)cc1-c1ccc(Cn2c(CC)nc3c(C)cc(C)nc32)cc1 [Example 40, Butyl (3-(4-((2-ethyl-5,7-dimethyl-3H-imidazo[4,5-b]pyridin-3-yl)methyl)phenyl)-5-(o-tolyl)thiophen-2-yl)sulfonylcarbamate] | 11.9 | 84.6 | 14 | 9.3 | 36.4 | 8.5
CCCCOC(=O)NS(=O)(=O)c1sc(-c2ccccc2C(F)(F)F)cc1-c1ccc(Cn2c(CC)nc3c(C)cc(C)nc32)cc1 [Example 45, Butyl (3-(4-((2-ethyl-5,7-dimethyl-3H-imidazo[4,5-b]pyridin-3-yl)methyl)phenyl)-5-(2-(trifluoromethyl)phenyl)thiophen-2-yl)sulfonylcarbamate] | 14.4 | 92.2 | 34.7 | 24.6 | 60.3 | 14.5
CCCCOC(=O)NS(=O)(=O)c1sc(-c2ccccc2C(F)(F)F)cc1-c1ccc(Cn2c(CC)nc3c(C)cc(C)nc32)cn1 [Example 46, Butyl (3-(5-((2-ethyl-5,7-dimethyl-3H-imidazo[4,5-b]pyridin-3-yl)methyl)pyridin-2-yl)-5-(2-(trifluoromethyl)phenyl)thiophen-2-yl)sulfonylcarbamate] | 355 | 84.8 | 13.1 | 32 | 45.1 | 15.4
CCCCOC(=O)NS(=O)(=O)c1sc(-c2cccnc2OC)cc1-c1ccc(Cn2c(CC)nc3c(C)cc(C)nc32)cc1 [Example 47, Butyl (3-(4-((2-ethyl-5,7-dimethyl-3H-imidazo[4,5-b]pyridin-3-yl)methyl)phenyl)-5-(2-methoxypyridin-3-yl)thiophen-2-yl)sulfonylcarbamate] | 6.2 | 56.6 | 14.7 | 10.1 | 24.5 | 3.8
CCCCOC(=O)NS(=O)(=O)c1sc(-c2cccnc2OC)cc1-c1ccc(Cn2c(CC)nc3c(C)cc(C)nc32)cn1 [Example 48, Butyl (3-(5-((2-ethyl-5,7-dimethyl-3H-imidazo[4,5-b]pyridin-3-yl)methyl)pyridin-2-yl)-5-(2-methoxypyridin-3-yl)thiophen-2-yl)sulfonylcarbamate] | 357 | 43.8 | 40.6 | 106 | 20.6 | 10.0
CCCCOC(=O)NS(=O)(=O)c1sc(-c2ccccc2)cc1-c1ccc(Cn2c(CC)nc3c(C)cc(C)nc32)cc1 [Example 49, Butyl (3-(4-((2-ethyl-5,7-dimethyl-3H-imidazo[4,5-b]pyridin-3-yl)methyl)phenyl)-5-phenylthiophen-2-yl)sulfonylcarbamate] | 21 | 78.3 | 11.2 | 10.9 | 47.6 | 4.2
CCCCOC(=O)NS(=O)(=O)c1sc(-c2ccccc2)cc1-c1ccc(Cn2c(CC)nc3c(C)cc(C)nc32)cn1 [Example 50, Butyl (3-(5-((2-ethyl-5,7-dimethyl-3H-imidazo[4,5-b]pyridin-3-yl)methyl)pyridin-2-yl)-5-phenylthiophen-2-yl)sulfonylcarbamate] | 132 | 64.9 | 16.8 | 10.9 | 21.8 | 6.7
